What was measured:
ALS = conditions: Non-Patent Documents 1-5; cited from earlier work
patients of ALS [1] = test: Efficacy evaluation 6 months after administration based on ALSFRS-R (cumulative differences); type: in vivo, human; conditions: for Suppression rate (rate of "suppressed") in accordance with ALSFRS-R / Assessment based on cumulative differences in accordance with ALSFRS-R: Suppressed (number of cases): i.v. once daily; for Suppression rate (rate of "suppressed") in accordance with ALSFRS-R: 6 administration periods; for Assessment based on cumulative differences in accordance with ALSFRS-R: Suppressed (number of cases): 6 administration periods with drug holidays, suppressed = ratio between cumulative differences 50% or less; for Assessment based on cumulative differences in accordance with ALSFRS-R: No change (number of cases): no change = ratio 100% or more; for Assessment based on cumulative differences in accordance with ALSFRS-R: Slightly suppressed (number of cases): slightly suppressed = ratio more than 50% and less than 100%
Procedure: 1 ampule of “Radicut injection 30 mg” (containing 30 mg of edaravone, produced and marketed by Mitsubishi Pharma Corporation) was intravenously administered once daily to 5 patients of ALS. Single daily administration of the medicament took 30 minutes, and the administration was carried out for 14 consecutive days (the 1st administration period). […] Thereafter, intravenous administration of the medicament was carried out for 10 days (with no administration on Saturdays, Sundays, and national holidays) in the manner described above (the 2nd administration period). Then, treatments similar to those carried out in the 2nd administration period were repeated 4 times (the 3rd to 6th administration periods).
2 ampules of the aforementioned “Radicut injection 30 mg” were intravenously administered once daily to 14 patients of ALS. Single daily administration of the medicament took 60 minutes, and the administration was carried out for 14 consecutive days (the 1st administration period). […] Thereafter, the intravenous administration of the medicament was carried out for 10 days (with no administration on Saturdays, Sundays, and national holidays) in the manner described above (the 2nd administration period). Then, treatments similar to those carried out in the 2nd administration period were repeated 4 times (the 3rd to 6th administration periods).
In accordance with ALSFRS-R, the score at a time point “before the 1st administration period” (*) was determined to be a base point based on comparison of changes “before administration” and changes “during administration.” Then, patients were evaluated in the following manner.
• Difference at each time point before administration=(* before the 1st administration period)−(time point 1, 2 3, 4, 5 or 6 before administration) • Difference at each time point during administration=(time point i, ii, iii, iv, v, or vi before each administration period)−(* before the 1st administration period)
The sum of differences at time points before administration (defined as A)
A=(*−1)+(*−2)+(*−3)+(*−4)+(*−5)+(*−6)
The sum of differences at time points during administration (defined as B)
B=(i−*)+(ii−*)+(iii−*)+(iv−*)+(v−*)+(vi−*)
Averages of the sums of differences obtained in 2) were calculated so as to obtain cumulative differences. (The sums were divided by 6, based on 6 time points 1 to 6 before administration and 6 time points i to vi during administration).
Cumulative difference before administration=A/6
Cumulative difference during administration=B/6
Based on the averages obtained in 3), the ratio of cumulative difference before administration (A/6) to cumulative difference during administration (B/6) was expressed by the following formula:
(Formula)cumulative difference during administration/cumulative difference before administration×100.
Ratio between cumulative differences(%)=(B/6)/(A/6)×100.
Based on the “ratio between cumulative differences” obtained in 4), efficacy evaluation was made in accordance with the following criteria.

patients of ALS [2] = test: Efficacy evaluation 6 months after administration based on % FVC (percent predicted forced vital capacity); type: in vivo, human; conditions: for average rate of decrease of % FVC: before 1st administration period vs end of 6th administration period
Procedure: The term “% FVC” stands for percent predicted forced vital capacity; it is generally used as an index in a method for objectively evaluating respiratory function in ALS patients (ALS treatment guidelines 2002). In addition, in the case of ALS patients (placebo group), the rate of decrease of % FVC for during 6 months is 13.8% (The BDNF Study Group (Phase III), Neurology, 52, 1427 (1999)).
1 ampule of the aforementioned “Radicut injection 30 mg” was intravenously administered once daily to 4 patients of ALS. Single daily administration of the medicament took 30 minutes, and it was carried out for 14 consecutive days (the 1st administration period). […] Thereafter, intravenous administration of the medicament was carried out for 10 days (with no administration on Saturdays, Sundays, and national holidays) in the manner described above (the 2nd administration period). Then, treatments similar to those carried out in the 2nd administration period were repeated 4 times (the 3rd to the 6th administration periods).
The % FVC for each patient was determined using a chestac-11 (Chest). The average rate of decrease of % FVC was 9.3% when comparing % FVC before the 1st drug administration period and that at the end of the 6th drug administration period.
2 ampules of “Radicut injection 30 mg” (each of which contained 30 mg of edaravone) were intravenously administered once daily to 12 patients of ALS. Single daily administration of the medicament took 60 minutes and it was carried out for 14 consecutive days (the 1st administration period). […] Thereafter, intravenous administration of the medicament was carried out for 10 days (with no administration on Saturdays, Sundays, and national holidays) in the manner described above (the 2nd administration period). […]
The % FVC for each patient was determined using a chestac-11 (Chest), as with the case of the 30 mg group. […] In addition, partial pressure of arterial carbon dioxide (PaCO2) was determined. The PaCO2 of each patient was determined using a blood gas analyzer (Bayer 850; Bayer Medical).

patients of ALS [3] = test: Partial pressure of arterial carbon dioxide (PaCO2), blood gas analyzer; type: in vivo, human
Procedure: 2 ampules of “Radicut injection 30 mg” (each of which contained 30 mg of edaravone) were intravenously administered once daily to 12 patients of ALS. Single daily administration of the medicament took 60 minutes and it was carried out for 14 consecutive days (the 1st administration period). […] Thereafter, intravenous administration of the medicament was carried out for 10 days (with no administration on Saturdays, Sundays, and national holidays) in the manner described above (the 2nd administration period). Then, treatments similar to those carried out in the 2nd administration period were repeated 4 times (the 3rd to the 6th administration periods).
The % FVC for each patient was determined using a chestac-11 (Chest), as with the case of the 30 mg group. The average rate of decrease of % FVC was 4.5% when comparing % FVC before the 1st drug administration period and that at the end of the 6th drug administration period. In addition, partial pressure of arterial carbon dioxide (PaCO2) was determined. The PaCO2 of each patient was determined using a blood gas analyzer (Bayer 850; Bayer Medical).

patients of ALS [4] = test: Safety evaluation 6 months after administration, clinical laboratory test; type: in vivo, human; conditions: for BUN / CK / Creatinine / GOT / GPT / γ-GTP: average of patients of Example 2
Procedure: The patients of Example 2 were each subjected to a clinical laboratory test.
The following components were determined before and after drug administration using a large automated multichannel analyzer (automatic analyzer 7600-020s; Hitachi).

[5] = overall conclusion of Example 2
[6] = before administration (baseline)

CC(=O)N[C@@H](CS)C(=O)O [N-acetylcysteine]
prevention of decreased respiratory function in ALS (ALS): cannot prevent decreased respiratory function

CC1=NN(c2ccccc2)C(=O)C1 [Radicut injection 30 mg, 3-methyl-1-phenyl-2-pyrazolin-5-one]
Suppression rate (rate of "suppressed") in accordance with ALSFRS-R (patients of ALS [1]; 30 mg group (5 ALS patients)): 20% | Assessment based on cumulative differences in accordance with ALSFRS-R: Suppressed (number of cases) (patients of ALS [1]; 30 mg group (5 ALS patients)): 1 | Assessment based on cumulative differences in accordance with ALSFRS-R: No change (number of cases) (patients of ALS [1]; 30 mg group (5 ALS patients)): 1 | Assessment based on cumulative differences in accordance with ALSFRS-R: Slightly suppressed (number of cases) (patients of ALS [1]; 30 mg group (5 ALS patients)): 3 | Suppression rate (rate of "suppressed") in accordance with ALSFRS-R (patients of ALS [1]; 60 mg group (14 ALS patients)): 50% | Assessment based on cumulative differences in accordance with ALSFRS-R: Suppressed (number of cases) (patients of ALS [1]; 60 mg group (14 ALS patients)): 7 | Assessment based on cumulative differences in accordance with ALSFRS-R: No change (number of cases) (patients of ALS [1]; 60 mg group (14 ALS patients)): 6 | Assessment based on cumulative differences in accordance with ALSFRS-R: Slightly suppressed (number of cases) (patients of ALS [1]; 60 mg group (14 ALS patients)): 1 | average rate of decrease of % FVC (patients of ALS [2]; 30 mg group (4 ALS patients)): 9.3% | average rate of decrease of % FVC (patients of ALS [2]; 60 mg group (12 ALS patients)): 4.5% | decrease of % FVC in ALS patients (patients of ALS [2]; [5]): significantly suppressed | PaCO2 values before the 1st administration period and after the end of the 6th administration period (patients of ALS [3]; 60 mg group (12 ALS patients)): almost the same | increase of PaCO2 in ALS patients (patients of ALS [3]; [5]): significantly suppressed | BUN (patients of ALS [4]; after administration): 14.3 mg/dL | CK (patients of ALS [4]; after administration): 135.6 IU/L | Creatinine (patients of ALS [4]; after administration): 0.6 mg/dL | GOT (patients of ALS [4]; after administration): 19.1 IU/L | GPT (patients of ALS [4]; after administration): 19.6 IU/L | γ-GTP (patients of ALS [4]; after administration): 25.3 IU/L | BUN (patients of ALS [4]; [6]): 14.1 mg/dL | CK (patients of ALS [4]; [6]): 165.3 IU/L | Creatinine (patients of ALS [4]; [6]): 0.6 mg/dL | GOT (patients of ALS [4]; [6]): 21.3 IU/L | GPT (patients of ALS [4]; [6]): 22.2 IU/L | γ-GTP (patients of ALS [4]; [6]): 31.6 IU/L | clinical laboratory values after administration (safety) (patients of ALS [4]; patients of Example 2, 6 months after administration): did not increase to abnormal levels

NCC1(CC(=O)O)CCCCC1 [gabapentin]
prevention of decreased respiratory function in ALS (ALS): cannot prevent decreased respiratory function

RhIGF-1: medicament examined as potential medicament for treating ALS
prevention of decreased respiratory function in ALS (ALS): cannot prevent decreased respiratory function

B1: BDNF: medicament examined as potential medicament for treating ALS (protein, UniProt P23560 19-247, looked up)
Neurotrophic factor BDNF …: APMKEANIRGQGGLAYPGVRTHGTLESVNGPKAGSRGLTSLADTFEHVIEELLDEDQKVRPNEENNKDADLYTSRVMLSSQVPLEPPLLFLLEEYKNYLDAANMSMRVRRHSDPARRGELSVCDSISEWVTAADKKTAVDMSGGTVTVLEKVPVSKGQLKQYFYETKCNPMGYTKEGCRGIDKRHWNSQCRTTQSYVRALTMDSKKRIGWRFIRIDTSCVCTLTIKRGR
prevention of decreased respiratory function in ALS (ALS): cannot prevent decreased respiratory function

Reference: patent publication US20080161378A1, “Novel Therapeutic Agent For Amyotrophic Lateral Sclerosis (Als) or Diseases Caused by Als” (priority 2004, published 2008)
